“Also recorded” adds a separate entry of the source.
Key:
[1] = system: DAT; conditions: cited from earlier work
[2] = system: DAT; conditions: non-human primates, within 2 h post injection; cited from earlier work
[3] = biological target: T1, rat brain DAT (Rattus norvegicus, UniProt P23977); assay: In vivo selectivity: block with monoamine transporter ligands before [18F]FBCINT in rats; conditions: 60 minutes
T1 construct: from tissue; host or cells: brain of living male Sprague Dawley rats (striatum, cortex, cerebellum dissected)
Description: FBCINT. The rats were sacrificed 60 minutes after injection of [^18F] FBCINT and the striatum, cortex, prefrontal cortex, olfactory tubercles and cerebellum were dissected and the uptake of radioactivity determined. The monoamine transporter ligands administered were RTI-113 (DAT), paroxetine (SERT) and reboxetine (NET). […] FBCINT in the DAT transporter rich striatum and olfactory tubercles. […] FBCINT.

[4] = In vivo regional brain tissue distribution of 18F-labeled ligands in rats; parameters: species or system Sprague Dawley rats; conditions: rat; for Regional uptake of radioactivity, Cerebellum / Regional uptake of radioactivity, Cortex (Cx) / Regional uptake of radioactivity, Striatum / Uptake of radioactivity, Blood / Uptake of radioactivity, Bone / Uptake of radioactivity, Brain: i.v., 18F-labeled
Text: The in vivo regional brain tissue distribution of [^18F]

[5] = PET brain imaging in a rhesus monkey; assay type: in vivo
Description: The regional distribution of E-[^18F] […] Dynamic emission data were acquired using a 35 frame acquisition protocol which included twelve 30 second scans, six one minute scans, six 3 minute scans, five 10 minute scans and six 20 minute scans.

[6] = system: striatal DAT; assay: Chase (displacement) study with β-CIT, PET in rhesus monkey; assay type: in vivo; conditions: for displacement from striatum by β-CIT: PET
Description: A chase study with E-[^18F] FBCINT and β-CIT, a DAT ligand, was also performed in the same rhesus monkey. At 195 minutes p.i. 3.0 mg (0.9 μmol/kg) of β-CIT, was administered intravenously and dynamic imaging was continued for an additional 40 minutes (eight 5 minute scans). […] The displacement of E-[^18F] […] The regional distribution and kinetic behavior of E-[^18F] […] FBFNT (6e) were next compared in the brain of awake rhesus monkeys.

[7] = system: striatal DAT; assay: PET imaging in awake rhesus monkeys; assay type: in vivo, rhesus monkey
Description: The regional kinetics of [^18F] […] Both [^18F] […] [^18F] […] The peak uptake ratio of striatumwcerebellum was 4:1 at 20 minutes for [^18F] […] 6d. The in vivo ratio of [1^18F] […] FECNT, 5:1. [^18F]

[8] = Stability to metabolism and in vivo loss of fluorine-18
[9] = biological target: T1, rat brain DAT; assay: In vivo specificity: RTI-113 block before the 18F ligand in rats
Description: To determine the in vivo specificity of FBNT analogs [^18F] […] 6a, 6d and 6e. The rats were sacrificed 60 minutes after injection of [^18F] […] 6a, 6d and 6e, in the DAT transporter rich striatum.

[10] = 60 min, 5 mg/kg RTI-113 i.v. 15 minutes prior

T1 sequence (P23977 whole entry): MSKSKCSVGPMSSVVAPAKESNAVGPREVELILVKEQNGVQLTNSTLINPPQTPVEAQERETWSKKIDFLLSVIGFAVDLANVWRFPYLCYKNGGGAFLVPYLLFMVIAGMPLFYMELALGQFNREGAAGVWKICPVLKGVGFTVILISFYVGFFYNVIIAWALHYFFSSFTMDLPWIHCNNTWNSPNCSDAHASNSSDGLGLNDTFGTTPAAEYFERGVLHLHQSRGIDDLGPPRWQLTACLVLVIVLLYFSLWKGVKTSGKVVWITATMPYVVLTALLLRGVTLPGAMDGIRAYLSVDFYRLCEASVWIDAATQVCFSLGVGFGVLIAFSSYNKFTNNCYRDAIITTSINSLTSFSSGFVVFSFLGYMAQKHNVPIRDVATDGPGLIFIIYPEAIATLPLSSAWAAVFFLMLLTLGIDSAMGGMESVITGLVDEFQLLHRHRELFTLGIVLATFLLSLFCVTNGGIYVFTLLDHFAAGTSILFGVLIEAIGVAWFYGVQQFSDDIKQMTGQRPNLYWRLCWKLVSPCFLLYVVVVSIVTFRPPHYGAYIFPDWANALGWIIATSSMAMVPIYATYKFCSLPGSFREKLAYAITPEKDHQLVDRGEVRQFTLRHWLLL

COC(=O)C1C(c2ccc(Cl)cc2)CC2CCC1N2C/C=C/[123I] (stereo not shown) [MMG/142, IPT]
in vitro selectivity (DA/5-HT) [1]: ~7
striatal to cerebellum ratios [2]: 15 to 1

COC(=O)C1C(c2ccc(Cl)cc2)CC2CCC1N2C/C=C/CF (stereo not drawn) [6d, N-((E)-4-fluorobut-2-en-1-yl)-2β-carbomethoxy-3β-(4-chlorophenyl)nortropane]
effect of GBR 12909 on uptake in striatum and olfactory tubercles ([3]; 5 mg/kg i.v. 15 minutes prior): significantly blocked
effect of SERT and NET blocking agents on regional brain uptake ([3]; 5 mg/kg i.v. 15 minutes prior): no effect
Regional uptake, Cerebellum ([3]; GBR 12909 5 mg/kg i.v.): 0.15 % dose/g
Regional uptake, Cortex (CX) (dry tissue) ([3]; GBR 12909 5 mg/kg i.v.): 0.69 % dose/g
Regional uptake, Olfactory Tubercle (dry tissue) ([3]; GBR 12909 5 mg/kg i.v.): 1.07 % dose/g
Regional uptake, Prefrontal Cx (dry tissue) ([3]; GBR 12909 5 mg/kg i.v.): 1.02 % dose/g
Regional uptake, Striatum (dry tissue) ([3]; GBR 12909 5 mg/kg i.v.): 1.51 % dose/g
Regional uptake, Cerebellum ([3]; No Block): 0.13 % dose/g
Regional uptake, Cortex (CX) (dry tissue) ([3]; No Block): 0.53 % dose/g
Regional uptake, Olfactory Tubercle (dry tissue) ([3]; No Block): 5.26 % dose/g
Regional uptake, Prefrontal Cx (dry tissue) ([3]; No Block): 0.74 % dose/g
Regional uptake, Striatum (dry tissue) ([3]; No Block): 6.96 % dose/g
Regional uptake, Cerebellum ([3]; Paroxetine 5 mg/kg i.v.): 0.10 % dose/g
Regional uptake, Cortex (CX) (dry tissue) ([3]; Paroxetine 5 mg/kg i.v.): 0.46 % dose/g
Regional uptake, Olfactory Tubercle (dry tissue) ([3]; Paroxetine 5 mg/kg i.v.): 5.06 % dose/g
Regional uptake, Prefrontal Cx (dry tissue) ([3]; Paroxetine 5 mg/kg i.v.): 0.67 % dose/g
Regional uptake, Striatum (dry tissue) ([3]; Paroxetine 5 mg/kg i.v.): 4.47 % dose/g
Regional uptake, Cerebellum ([3]; Reboxetine 5 mg/kg i.v.): 0.12 % dose/g
Regional uptake, Cortex (CX) (dry tissue) ([3]; Reboxetine 5 mg/kg i.v.): 0.41 % dose/g
Regional uptake, Olfactory Tubercle (dry tissue) ([3]; Reboxetine 5 mg/kg i.v.): 5.74 % dose/g
Regional uptake, Prefrontal Cx (dry tissue) ([3]; Reboxetine 5 mg/kg i.v.): 0.77 % dose/g
Regional uptake, Striatum (dry tissue) ([3]; Reboxetine 5 mg/kg i.v.): 6.64 % dose/g
clearance from striatal tissue ([4]; at 120 minutes compared to 5 minutes post injection): 50%
Regional uptake of radioactivity, Cerebellum ([4]; 5 min): 0.52 % dose/g
Regional uptake of radioactivity, Cortex (Cx) ([4]; 5 min): 0.76 % dose/g
Regional uptake of radioactivity, Striatum ([4]; 5 min): 1.33 % dose/g
Uptake of radioactivity, Blood ([4]; 5 min): 0.14 % dose/g
Uptake of radioactivity, Bone ([4]; 5 min): 0.30 % dose/g
Uptake of radioactivity, Brain ([4]; 5 min): 0.66 % dose/g
Regional uptake of radioactivity, Cerebellum ([4]; 30 min): 0.19 % dose/g
Regional uptake of radioactivity, Cortex (Cx) ([4]; 30 min): 0.40 % dose/g
Regional uptake of radioactivity, Striatum ([4]; 30 min): 1.31 % dose/g
Uptake of radioactivity, Blood ([4]; 30 min): 0.16 % dose/g
Uptake of radioactivity, Bone ([4]; 30 min): 0.80 % dose/g
Uptake of radioactivity, Brain ([4]; 30 min): 0.29 % dose/g
Regional uptake of radioactivity, Cerebellum ([4]; 60 min): 0.10 % dose/g
Regional uptake of radioactivity, Cortex (Cx) ([4]; 60 min): 0.13 % dose/g
Regional uptake of radioactivity, Striatum ([4]; 60 min): 0.61 % dose/g
Uptake of radioactivity, Blood ([4]; 60 min): 0.10 % dose/g
Uptake of radioactivity, Bone ([4]; 60 min): 1.35 % dose/g
Uptake of radioactivity, Brain ([4]; 60 min): 0.14 % dose/g
Regional uptake of radioactivity, Cerebellum ([4]; 120 min): 0.13 % dose/g
Regional uptake of radioactivity, Cortex (Cx) ([4]; 120 min): 0.24 % dose/g
Regional uptake of radioactivity, Striatum ([4]; 120 min): 0.69 % dose/g
Uptake of radioactivity, Blood ([4]; 120 min): 0.13 % dose/g
Uptake of radioactivity, Bone ([4]; 120 min): 1.9 % dose/g
Uptake of radioactivity, Brain ([4]; 120 min): 0.17 % dose/g
Regional uptake of radioactivity, Striatum ([4]; 120 min, listed as [F-18]FBCINT): 2.5 % dose/g
striatum (S) uptake by PET ([5]; 180-210 min): 2.7 μCi/mL
striatum uptake ([5]; PET): high striatum uptake; also recorded: region of highest uptake in the brain
displacement from striatum by β-CIT [6]: striatal washout; also recorded: significant reduction of activity in the striatum
displacement from striatum by β-CIT ([6]; listed as FBCINT): exhibited reversibility
washout half-time on displacement by β-CIT ([6]; β-CIT 0.9 μmol/kg i.v. at 195 minutes p.i.): 21 min
striatal washout / time course of uptake ([7]; awake rhesus monkey, decay corrected): very little if any washout; also recorded: appears constant at 115 minutes post injection
initial uptake in striatum and cerebellum ([7]; awake rhesus monkeys): high initial uptake in the striatum and very little uptake in the cerebellum
stability to metabolism and in vivo loss of fluorine-18 [8]: stable to metabolism and in vivo loss of the fluorine-18 radioisotope
Regional uptake of radioactivity, Cerebellum [9, 10]: 0.12 % dose/g
Regional uptake of radioactivity, Cortex (Cx) [9, 10]: 0.14 % dose/g
Regional uptake of radioactivity, Striatum [9, 10]: 0.15 % dose/g
Uptake of radioactivity, Blood [9, 10]: 0.12 % dose/g
Uptake of radioactivity, Brain [9, 10]: 0.12 % dose/g
effect of RTI-113 on uptake in the striatum ([9]; RTI-113 5 mg/kg i.v. 15 minutes prior, 60 minutes): significantly blocked
